Reference: patent US5238936A, “Trisubstituted triazines” (Adir et Compagnie, priority 1991, dated 1993)

Experiments:
[1] = test system: line DC-3F/AD; test: Cytotoxicity (Microculture Tetrazolium Assay): reversal of resistance to actinomycin D, line DC-3F/AD; assay type: cell-based, Chinese hamster; settings: 4 days
Text: The pharmacological study of the compounds of the present invention consisted first of all in an evaluation in vitro carried out on resistant cells. The parameter measured is the cytotoxicity of the antitumour drug, quantified in the absence and in the presence of the reversing compound.
The cells are distributed on microplates and exposed to the cytotoxic compounds (actinomycin D for line DC-3F/AD and adriamycin for line KB-Al) at 9 concentrations (2 by 2 series dilutions). The compounds tested for their capacity to reverse MDR are added at the same time as the cytotoxic agent.
The cells are then incubated for 4 days. […] The results are expressed as a reversion factor (RF): PG,29 [formula]

[2] = test system: resistant line P/388/VCR; test: Antitumour activity in vivo: increase in antitumour activity of vincristine on murine leukaemia P 388/VCR; parameters: species or system murine; female B6D2Fl mice; settings: with vincristine […] i.p., ± sem, no compound: 146 ± 2
Text: This study was completed by an in vivo study, using a murine leukaemia resistant to vincristine (P/388/VCR) and using the compounds in association with vincristine.
The sensitive parent line P 388 (murine leukaemia) and the sub-line resistant to vincristine, P 388/VCR, were supplied by NCI (Frederick, USA). The tumour cells (10^6 cells) were inoculated on day 0 into the intraperitoneal cavity of female B6D2Fl mice (Iffa Credo, France) weighing from 18 to 20 g (groups of 8 to 10 animals).
Every day for 4 days, starting from day 1, the animals received: […]
30 to 60 minutes later, an administration by the i.p. route of 0.25 mg/kg of vincristine (used as a reference antitumour agent).
The tumour activity is expressed as follows: [formula]
The values are mean values obtained in independent experiments (± sem when n is greater than or equal to 3).

[3] = test system: line DC-3F/AD; test: Flow cytometry: intracellular accumulation of adriamycin by cells of the line DC-3F/AD; assay type: cell-based, Chinese hamster; settings: ADR 50 μM, 5 hours
Text: Also measured was the effect of the compounds on the intracellular concentration of the cytotoxic agent. In effect, the known compounds for reversing MDR act by increasing the intracellular concentration of cytotoxic agent. This effect is the consequence of inhibiting the action of gP 170 which is responsible for the efflux of the drug.
By measuring that fluorescence, it is thus possible to obtain a relative measurement of the intracellular concentration of ADR.
The cells 500×10^3 per ml were exposed simultaneously to ADR at a fixed concentration (50 μM) and to the tested compounds at various concentrations. After 5 hours' incubation, the intracellular accumulation of ADR was evaluated by FCM. […] The analysis of each of the samples was carried out on a total of 10,000 cells at a rate of 1,000 cells per second.
The results were presented in the form of linear histograms of the intracellular ADR fluorescence.
Expression of the results: for each of the histograms the mean fluorescence per channel (MEAN) was determined by the information system of the apparatus. For all experiments:
a negative control (cells without ADR) fixed the autofluorescence threshold.
a positive control (cells with ADR) determined the MEAN value=MN1.
the "test" tubes (cells with ADR and with compound) were used to determine, for each of the compounds and at each of the concentrations, the MEAN values=MN2.
The results are expressed in the form of variations from the mean fluorescence obtained for each of the "test" tubes (MN2) in relation to the mean fluorescence obtained with the positive control (MNl): VAR-MEAN=MN2-MN1. The parameter expressed is thus the increase in ADR fluorescence in the presence of the tested compounds.

[4] = 100 mg/kg i.p. daily for 4 days

SMILES	Reversion factors (cytotoxicity) with the line DC-3F/AD ([1]; 0.5 μM compound)	Reversion factors (cytotoxicity) with the line DC-3F/AD ([1]; 1 μM compound)	Reversion factors (cytotoxicity) with the line DC-3F/AD ([1]; 5 μM compound)	T/C % ([2]; 50 mg/kg i.p. daily for 4 days) [%]	T/C % [2, 4] [%]	VAR-MEAN (increase in ADR fluorescence), line DC-3F/AD ([3]; 1.0 μM compound)	VAR-MEAN (increase in ADR fluorescence), line DC-3F/AD ([3]; 5.0 μM compound)	VAR-MEAN (increase in ADR fluorescence), line DC-3F/AD ([3]; 10 μM compound)	VAR-MEAN (increase in ADR fluorescence), line DC-3F/AD ([3]; […] compound)
C=CCNc1nc(NCCC)nc(N2CCC(NCC3c4ccccc4CCc4ccccc43)CC2)n1 [Example 5, 2-allylamino-4-propylamino-6-{4-[(10,11-dihydro-5H-dibenzo[a,d]cyclohepten-5-yl)methylamino]piperidin-1-yl}-1,3,5-triazine]	3.8	81	2753	184	195	17.9	27.3	24.9	23.5
C=CCNc1nc(NCC=C)nc(N2CCC(NCC3c4ccccc4CCc4cc(OC)ccc43)CC2)n1 (racemic) [Example 31, 2,4-diallylamino-6-{4-[((R,S)-10,11-dihydro-5H-2-methoxydibenzo[a,d]cyclohepten-5-yl)methylamino]piperidin-1-yl)-1,3,5-triazine]	3.1	85.9	1913.4	159	177	9.4	30.8	–	26.6
C=CCNc1nc(NCC)nc(N2CCC(NCC3c4ccccc4CCc4ccccc43)CC2)n1 [Example 22, 2-allylamino-4-ethylamino-6-{4-[(10,11-dihydro-5H-dibenzo[a,d]cyclohepten-5-yl)methylamino]piperidin-1-yl}-1,3,5-triazine]	32	177	2499	159	165	15.1	23.1	24.9	21.9
C=CCNc1nc(NCC=C)nc(N2CCC(NCC3c4ccccc4N(C)S(=O)(=O)c4cc(Cl)ccc43)CC2)n1 (racemic) [Example 21, 2,4-diallylamino-6-{4-[(8-chloro-10,10-dioxo-11-methyl-(R,S)-dibenzo[c,f]thiazepin-5-yl)methylamino]piperidin-1-yl}-1,3,5-triazine]	1.2	18	2804	154	148	8.1	22.8	24.1	21.1
C=CCNc1nc(NCC=C)nc(N2CCC(NCC3c4ccccc4CCCc4ccccc43)CC2)n1 [Example 20, 2,4-diallylamino-6-{4-[(5,6,7,12-tetrahydrodibenzo[a,d]cycloocten-12-yl)methylamino]piperidin-1-yl}-1,3,5-triazine]	3.4	52	2951	161	174	8.2	22.3	21.6	19.7
C=CCNc1nc(NCC=C)nc(N2CCC(NCC3c4ccccc4COc4ccccc43)CC2)n1 (racemic) [Example 19, 2,4-diallylamino-6-{4-[((R,S)-6,11-dihydro-dibenzo[b,e]oxepin-11-yl)methylamino]piperidin-1-yl}-1,3,5-triazine]	3.8	63	2525	167 ± 7	184 ± 7	13.1	25.5	25.3	22.6
C=CCNc1nc(NCC=C)nc(N2CCC(NCC3c4ccccc4C=Cc4ccccc43)CC2)n1 [Example 11, 2,4-diallylamino-6-{4-[(5H-dibenzo[a,d]cyclohepten-5-yl)methylamino]piperidin-1-yl}-1,3,5-triazine]	2	26	1408	156	168 ± 15	12.7	24.5	25.8	20.2
C=CCNc1nc(NC)nc(N2CCC(NCC3c4ccccc4COc4ccccc43)CC2)n1 (racemic) [Example 28, 2-allylamino-4-methylamino-6-{4-[((R,S)-6,11-dihydro-dibenzo[b,e]oxepin-11-yl)methylamino]piperidin-1-yl}-1,3,5-triazine]	–	18.1	600.4	170	171	4.3	16.8	21.5	12.8
C=CCNc1nc(NCC=C)nc(N2CCC(NCC3c4ccccc4CCc4ccccc43)CC2)n1 [Example 3, 2,4-Diallylamino-6-{4-[(10,11-dihydro-5H-dibenzo[a,d]cyclohepten-5-yl)methylamino]piperidin-1-yl}-1,3,5-triazine]	43	236	3187	208 ± 23	193 ± 3	20.2	28.3	29.6	25.8
